# According to patent US12122821B2, “Regulation of glucose metabolism using anti-CGRP antibodies” (H. LUNDBECK A/S, priority 2013, dated 2024):
# Legend:
# Type in all cases: in vivo
# [1] = system: Zucker diabetic fatty (ZDF) rat; experiment: Oral glucose tolerance test on day 26 in ZDF rats (Example 3)
# Protocol: The oral glucose tolerance test (OGTT) was performed as follows. On day 25, rats were fasted at ˜6:00 pm and an oral glucose tolerance test was performed the day after (on day 26). At ˜8:00 am (T-60) a blood collection (110 μL, EDTA) was performed for biochemical parameters measurements. One hour after (˜09:00 am), an oral glucose bolus (1.5 g/kg) was administered (T0). Blood glucose was measured (glucometer or colorimetric method in case of high glycaemia) on T-60, T0, T15, T30, T60, T90, T120, and T180 minutes. Area under the curve (AUC) was calculated based on the blood glucose values measured at T0. Plasma insulin and C-peptide were measured (ELISA method) on T-60, T15 (·40 μL of blood, EDTA), and T30 minutes (·40 μL of blood, EDTA).
# [2] = system: Zucker diabetic fatty (ZDF) rat; experiment: Fasting blood glucose, plasma insulin, C-peptide and HOMA-IR in ZDF rats (Example 3); details: vs vehicle ZDF
# Protocol: (§1) For the groups treated with AB14, the antibody was administered once weekly via the caudal vein (i.v., 5 mL/kg) on days 1, 8, 15, and 22 at two different doses 20 mg/kg/week (groups 3 and 7) or 60 mg/kg/week (groups 4 and 8). All other groups were treated once weekly with vehicle 1 (i.v., 5 mL/kg). The intravenous treatments were performed in the morning on day 1, 8, 15, and 22 while under isoflurane anaesthesia. The volume of administration was individually adapted according to the most recent body weight.
# (§2) All other groups were treated daily with vehicle 2 (p.o., 5 mL/kg) for 28 days. The most recent body weight was used to calculate the average volume of administration in each group.
# (§3) A fasting (6 hours on day 0 from 8:00 am to 02:00 pm, and overnight on day 12, 19 and 26 from ˜6:00 pm to ˜8:00 am) was performed before each blood collection. Blood was collected at ˜2:00 pm, from the tip of the tail, on day 0 (before screening, 150 μL, potassium EDTA), and at ˜8:00 am prior to dosing on days 12 (110 μL, potassium EDTA), 19 (150 μL, potassium EDTA) and 26, (110 μL, potassium EDTA).
# (§4) Fasting blood glucose (glucometers) was measured on days 0, 12, 19, and 26. Fasting plasma insulin, peptide-C (ELISA method), free fatty acids, triglycerides, total cholesterol (colorimetric method), and HDL-cholesterol (phosphotungstate precipitation, colorimetric method) were measured on day 0, and prior to dosing on days 12, 19, and day 26. Non HDL-cholesterol was calculated as total cholesterol—HDL-cholesterol. Fructosamine was measured on days 0, 19 and 28. HbA1c (DCA 2000) was measured on days 0 and 28.
# [3] = system: Zucker diabetic fatty (ZDF) rat; experiment: Plasma triglycerides, free fatty acids and cholesterol in ZDF rats (Example 3); details: for increase of plasma HDL-cholesterol / decrease of plasma non HDL-cholesterol levels: vs vehicle; for lowering of plasma free fatty acids levels: vs vehicle ZDF
# Protocol: as §1, §2, §3, §4
# [4] = system: Zucker diabetic fatty (ZDF) rat; experiment: Body weight and food intake in ZDF rats (Example 3); details: pioglitazone 10 mg/kg/day, vs vehicle ZDF
# Protocol: as §1, with “weight. […] All other groups were treated daily with vehicle 2 (p.o., 5 mL/kg) for 28 days. The most recent body weight was used to calculate the average volume of administration in each group. Body weight was measured twice a week during the 4 weeks of treatment. Food consumption was measured just before the screening procedure and then twice weekly over 24 h during the first three weeks of treatment. Food consumption was measured once weekly during the week of OGTT (week 4).” for “weight.”
# [5] = system: Zucker diabetic fatty (ZDF) rat; experiment: Fructosamine and HbA1c in ZDF rats (Example 3); details: vs vehicle ZDF
# Protocol: as §1, §2, §4
# [6] = OGTT day 26, pioglitazone 10 mg/kg/day, vs vehicle ZDF
# [7] = day 12, pioglitazone 10 mg/kg/day
# [8] = day 19, pioglitazone 10 mg/kg/day
# [9] = day 26, pioglitazone 10 mg/kg/day
# [10] = days 12, 19 and 26, pioglitazone 10 mg/kg/day
smiles,measurement,setting,value
CCc1ccc(CCOc2ccc(CC3SC(=O)NC3=O)cc2)nc1 (centres unmarked) [pioglitazone],increase of C-peptide secretion (relative to T-60) at T15,[1]; [6],21%
same,increase of C-peptide secretion (relative to T-60) at T30,[1]; [6],22%
same,increase of insulin secretion (relative to T-60) at T30,[1]; [6],5%
same,increase of insulin secretion (relative to T-60) at T15,"[1]; OGTT day 26, vs vehicle ZDF (pioglitazone 10 mg/kg/day)",20%
same,reduction in blood glucose AUC (OGTT),"[1]; day 26, pioglitazone 10 mg/kg/day, metformin 200 mg/kg/day, vs vehicle ZDF",54%
same,reduction of HOMA-IR,[2]; [7],67%
same,reduction of HOMA-IR,[2]; [8],62%
same,reduction of HOMA-IR,[2]; [9],54%
same,plasma C-peptide levels,[2]; [10],no effect
same,plasma insulin levels,[2]; [10],no effect
same,increase of plasma HDL-cholesterol,[3]; [7],38%
same,lowering of plasma free fatty acids levels,[3]; [7],35%
same,decrease of plasma non HDL-cholesterol levels,[3]; [8],49%
same,increase of plasma HDL-cholesterol,[3]; [8],17%
same,lowering of plasma free fatty acids levels,[3]; [8],17%
same,decrease of plasma non HDL-cholesterol levels,[3]; [9],47%
same,increase of plasma HDL-cholesterol,[3]; [9],19%
same,lowering of plasma free fatty acids levels,[3]; [9],30%
same,body weight gain at the end of the treatment,[4],3 fold
same,increase of cumulative food intake,[4]; NS,14%
same,decrease of HbA1c,"[5]; 28 days, pioglitazone 10 mg/kg/day, metformin 200 mg/kg/day",44%
same,reduction of fructosamine levels,"[5]; day 19, pioglitazone 10 mg/kg/day, metformin 200 mg/kg/day",30%
same,reduction of fructosamine levels,"[5]; day 28, pioglitazone 10 mg/kg/day",25%
